ChEMBL document CHEMBL4725446, “Development of a Raltegravir-based Photoaffinity-Labeled Probe for Human Immunodeficiency Virus-1 Integrase Capture” (ACS Med Chem Lett, 2020)
Calls of active or inactive are those of the source. No cut-off for these calls is given here.

What was measured:
[1] = Inhibition of HIV1 integrase assessed as reduction in LEDGF-independent integration pre-incubated for 1 hr before addition of DNA donor and acceptor substrate and measured after 90 mins by HTRF assay; set-up: species or system Human immunodeficiency virus 1
[2] = test system: Human immunodeficiency virus 1; experiment: Binding affinity to HIV1 integrase assessed as conjugation of enzyme at 7.5 to 25 uM in presence of UV illumination for 15 mins by SDS-PAGE analysis based photoaffinity labelling method; conditions: dose microM 7.5-25, time 15.0 min
[3] = test system: Human immunodeficiency virus 1; experiment: Binding affinity to HIV1 integrase assessed as induction of enzyme molecular weight shift at 7.5 to 25 uM in presence of UV illumination for 15 mins by LC-MS analysis; conditions: dose microM 7.5-25, time 15.0 min
[4] = test system: Human immunodeficiency virus 1; experiment: Binding affinity to HIV1 integrase assessed as induction of cross-linking at peptide region 164ELK166 at 7.5 to 25 uM in presence of UV illumination for 15 mins in presence of trypsin by LC-MS analysis; conditions: dose microM 7.5-25, time 15.0 min
[5] = test system: Human immunodeficiency virus 1; experiment: Binding affinity to HIV1 integrase assessed as induction of cross-linking at peptide region 42EIVASCDK49 at 7.5 to 25 uM in presence of UV illumination for 15 mins in presence of trypsin by LC-MS analysis; conditions: dose microM 7.5-25, time 15.0 min

| SMILES | IC50 [1] | Activity [2] | Activity [3] | Activity [4] | Activity [5] |
| --- | --- | --- | --- | --- | --- |
| Cc1nnc(C(=O)NC(C)(C)c2nc(C(=O)NCc3ccc(F)cc3)c(O)c(=O)n2C)o1 [RALTEGRAVIR] | 58 nM | – | – | – | – |
| CC(C)c1nc(C(=O)O)c(O)c(=O)n1C | 73000 nM | – | – | – | – |
| CC(C)c1nc(C(=O)NCc2ccc(C(=O)c3ccccc3)cc2)c(O)c(=O)n1C | 2300 nM | Active | Active | Active | Active |
